Test results from PMC9851200, “Multiparameter phenotypic screening for endogenous TFEB and TFE3 translocation identifies novel chemical series modulating lysosome function” (Autophagy, 2022).

Experiments:
Assay type in all cases: binding
[1] = target: T1, kinases (KINOMEscan panel) (Homo sapiens, UniProt P25098); conditions: NEW KINOMEscan
T1 sequence (P25098 1-689): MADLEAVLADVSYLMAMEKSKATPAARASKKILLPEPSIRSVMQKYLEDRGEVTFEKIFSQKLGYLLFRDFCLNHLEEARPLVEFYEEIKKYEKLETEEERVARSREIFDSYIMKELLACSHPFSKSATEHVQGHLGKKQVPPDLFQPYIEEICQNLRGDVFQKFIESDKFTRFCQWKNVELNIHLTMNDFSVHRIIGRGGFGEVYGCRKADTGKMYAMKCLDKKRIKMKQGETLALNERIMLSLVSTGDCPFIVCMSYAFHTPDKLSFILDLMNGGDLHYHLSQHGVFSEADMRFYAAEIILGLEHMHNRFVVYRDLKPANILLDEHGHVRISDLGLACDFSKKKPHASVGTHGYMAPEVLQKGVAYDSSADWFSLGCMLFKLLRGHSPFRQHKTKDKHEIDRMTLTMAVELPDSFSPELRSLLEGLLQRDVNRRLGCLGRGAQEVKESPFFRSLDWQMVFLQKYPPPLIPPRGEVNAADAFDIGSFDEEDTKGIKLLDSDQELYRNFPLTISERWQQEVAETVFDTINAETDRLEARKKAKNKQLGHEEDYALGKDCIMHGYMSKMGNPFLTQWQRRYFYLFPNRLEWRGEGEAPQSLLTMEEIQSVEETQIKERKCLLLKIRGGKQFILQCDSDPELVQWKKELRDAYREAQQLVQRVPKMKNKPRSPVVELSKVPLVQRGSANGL

[2] = target: kinases (KINOMEscan panel) (Homo sapiens, UniProt Q14004)
kinases (KINOMEscan panel) (Homo sapiens, UniProt Q14004), sequence (Q14004 whole entry): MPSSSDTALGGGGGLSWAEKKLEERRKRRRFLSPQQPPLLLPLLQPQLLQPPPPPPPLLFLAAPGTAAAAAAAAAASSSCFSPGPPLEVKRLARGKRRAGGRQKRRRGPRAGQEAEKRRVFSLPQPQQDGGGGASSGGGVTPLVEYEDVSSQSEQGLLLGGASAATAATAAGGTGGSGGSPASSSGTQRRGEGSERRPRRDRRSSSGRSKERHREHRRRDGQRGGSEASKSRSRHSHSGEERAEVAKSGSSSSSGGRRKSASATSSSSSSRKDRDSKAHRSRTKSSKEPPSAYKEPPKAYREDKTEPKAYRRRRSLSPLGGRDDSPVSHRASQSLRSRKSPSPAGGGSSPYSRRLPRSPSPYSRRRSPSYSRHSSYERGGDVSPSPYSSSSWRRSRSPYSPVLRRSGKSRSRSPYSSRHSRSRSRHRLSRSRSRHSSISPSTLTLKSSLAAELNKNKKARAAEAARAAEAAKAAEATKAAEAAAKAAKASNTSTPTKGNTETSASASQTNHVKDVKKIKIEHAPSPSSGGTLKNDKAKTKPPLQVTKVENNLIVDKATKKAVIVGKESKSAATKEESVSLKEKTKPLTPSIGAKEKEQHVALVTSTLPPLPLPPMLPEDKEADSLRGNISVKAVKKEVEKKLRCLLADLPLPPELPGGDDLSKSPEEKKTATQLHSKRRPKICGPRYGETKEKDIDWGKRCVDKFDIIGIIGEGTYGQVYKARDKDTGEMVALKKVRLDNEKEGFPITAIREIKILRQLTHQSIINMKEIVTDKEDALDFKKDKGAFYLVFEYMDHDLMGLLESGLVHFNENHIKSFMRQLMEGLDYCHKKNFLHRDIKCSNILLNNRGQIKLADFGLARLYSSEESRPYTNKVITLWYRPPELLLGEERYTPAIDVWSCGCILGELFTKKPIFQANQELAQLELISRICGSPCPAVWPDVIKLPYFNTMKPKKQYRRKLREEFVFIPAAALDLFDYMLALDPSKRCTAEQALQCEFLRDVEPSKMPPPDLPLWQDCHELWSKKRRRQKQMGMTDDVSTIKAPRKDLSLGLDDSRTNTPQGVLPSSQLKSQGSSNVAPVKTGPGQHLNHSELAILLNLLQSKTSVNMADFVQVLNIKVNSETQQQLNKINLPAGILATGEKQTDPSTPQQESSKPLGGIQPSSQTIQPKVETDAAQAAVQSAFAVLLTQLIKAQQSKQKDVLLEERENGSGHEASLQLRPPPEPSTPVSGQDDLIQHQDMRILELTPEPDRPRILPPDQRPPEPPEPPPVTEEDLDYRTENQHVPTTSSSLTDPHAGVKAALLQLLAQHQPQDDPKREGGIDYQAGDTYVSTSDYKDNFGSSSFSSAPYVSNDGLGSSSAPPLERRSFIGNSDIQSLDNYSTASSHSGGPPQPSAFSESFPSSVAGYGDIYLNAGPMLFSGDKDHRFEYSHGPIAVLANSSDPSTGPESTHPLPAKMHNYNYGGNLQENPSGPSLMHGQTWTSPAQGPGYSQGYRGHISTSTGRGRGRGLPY

[3] = target: kinases (KINOMEscan panel) (Plasmodium falciparum, UniProt P62344); conditions: PFCDPK1(P.falciparum); NEW KINOMEscan
kinases (KINOMEscan panel) (Plasmodium falciparum, UniProt P62344), sequence (P62344 whole entry): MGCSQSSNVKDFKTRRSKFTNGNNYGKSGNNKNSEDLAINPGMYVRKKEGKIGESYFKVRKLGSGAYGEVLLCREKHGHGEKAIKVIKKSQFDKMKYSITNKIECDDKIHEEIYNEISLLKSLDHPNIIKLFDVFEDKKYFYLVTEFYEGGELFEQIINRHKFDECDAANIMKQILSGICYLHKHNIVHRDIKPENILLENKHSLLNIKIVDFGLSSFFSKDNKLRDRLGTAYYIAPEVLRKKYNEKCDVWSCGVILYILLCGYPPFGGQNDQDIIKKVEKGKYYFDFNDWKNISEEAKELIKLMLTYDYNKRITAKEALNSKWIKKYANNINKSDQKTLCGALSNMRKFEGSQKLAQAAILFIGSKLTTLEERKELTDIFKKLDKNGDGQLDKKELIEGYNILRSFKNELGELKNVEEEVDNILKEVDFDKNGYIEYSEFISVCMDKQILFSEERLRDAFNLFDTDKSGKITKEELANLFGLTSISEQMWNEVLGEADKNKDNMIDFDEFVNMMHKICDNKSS

[4] = target: T2, kinases (KINOMEscan panel) (Homo sapiens, UniProt Q9C098); conditions: kinase DCLK3; NEW KINOMEscan
T2 sequence (Q9C098 1-648): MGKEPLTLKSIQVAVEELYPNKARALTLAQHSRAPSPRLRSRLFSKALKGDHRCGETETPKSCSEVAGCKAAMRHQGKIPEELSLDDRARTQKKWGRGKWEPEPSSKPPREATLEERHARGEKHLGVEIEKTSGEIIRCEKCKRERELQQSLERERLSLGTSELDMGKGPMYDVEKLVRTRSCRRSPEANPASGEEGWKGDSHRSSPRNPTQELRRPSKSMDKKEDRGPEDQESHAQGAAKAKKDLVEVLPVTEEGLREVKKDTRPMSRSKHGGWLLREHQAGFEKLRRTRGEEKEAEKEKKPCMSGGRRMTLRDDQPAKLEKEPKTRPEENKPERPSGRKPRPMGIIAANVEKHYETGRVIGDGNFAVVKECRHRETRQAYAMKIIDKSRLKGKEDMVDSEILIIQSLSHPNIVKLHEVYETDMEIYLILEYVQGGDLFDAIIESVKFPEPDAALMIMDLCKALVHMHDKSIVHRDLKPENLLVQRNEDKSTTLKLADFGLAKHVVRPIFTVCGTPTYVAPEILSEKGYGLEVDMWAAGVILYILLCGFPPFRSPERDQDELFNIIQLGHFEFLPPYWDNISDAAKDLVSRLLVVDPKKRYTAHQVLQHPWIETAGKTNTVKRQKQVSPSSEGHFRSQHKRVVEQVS

[5] = target: T3, kinases (KINOMEscan panel) (Homo sapiens, UniProt Q12851); conditions: kinase MAP4K2; NEW KINOMEscan
T3 sequence (Q12851 1-820): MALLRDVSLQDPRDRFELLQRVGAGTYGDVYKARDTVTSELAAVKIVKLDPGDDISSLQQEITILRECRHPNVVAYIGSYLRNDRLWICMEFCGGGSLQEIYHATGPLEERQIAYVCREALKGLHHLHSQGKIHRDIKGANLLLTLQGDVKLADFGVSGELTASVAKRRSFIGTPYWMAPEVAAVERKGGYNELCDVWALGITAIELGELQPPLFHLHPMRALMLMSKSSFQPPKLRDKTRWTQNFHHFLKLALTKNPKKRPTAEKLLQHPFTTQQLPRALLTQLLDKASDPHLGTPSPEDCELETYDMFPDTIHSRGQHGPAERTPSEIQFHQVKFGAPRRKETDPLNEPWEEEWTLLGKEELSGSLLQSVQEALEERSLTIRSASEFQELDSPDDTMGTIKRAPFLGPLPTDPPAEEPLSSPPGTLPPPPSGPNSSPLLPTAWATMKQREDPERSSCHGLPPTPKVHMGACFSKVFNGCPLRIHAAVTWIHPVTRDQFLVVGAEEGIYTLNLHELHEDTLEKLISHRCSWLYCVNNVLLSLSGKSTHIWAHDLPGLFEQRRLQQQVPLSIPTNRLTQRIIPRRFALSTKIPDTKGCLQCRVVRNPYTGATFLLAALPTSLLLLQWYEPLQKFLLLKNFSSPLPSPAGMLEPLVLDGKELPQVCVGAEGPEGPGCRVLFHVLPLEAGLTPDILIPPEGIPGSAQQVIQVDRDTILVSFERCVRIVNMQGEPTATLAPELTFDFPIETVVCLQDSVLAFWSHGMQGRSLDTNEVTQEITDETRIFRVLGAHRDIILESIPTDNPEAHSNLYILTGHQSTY

[6] = target: kinases (KINOMEscan panel) (Homo sapiens, UniProt P43405); conditions: SYK; NEW KINOMEscan
[7] = target: kinases (KINOMEscan panel) (Homo sapiens, UniProt P16591); conditions: FER; NEW KINOMEscan
kinases (KINOMEscan panel) (Homo sapiens, UniProt P16591), sequence (P16591 whole entry): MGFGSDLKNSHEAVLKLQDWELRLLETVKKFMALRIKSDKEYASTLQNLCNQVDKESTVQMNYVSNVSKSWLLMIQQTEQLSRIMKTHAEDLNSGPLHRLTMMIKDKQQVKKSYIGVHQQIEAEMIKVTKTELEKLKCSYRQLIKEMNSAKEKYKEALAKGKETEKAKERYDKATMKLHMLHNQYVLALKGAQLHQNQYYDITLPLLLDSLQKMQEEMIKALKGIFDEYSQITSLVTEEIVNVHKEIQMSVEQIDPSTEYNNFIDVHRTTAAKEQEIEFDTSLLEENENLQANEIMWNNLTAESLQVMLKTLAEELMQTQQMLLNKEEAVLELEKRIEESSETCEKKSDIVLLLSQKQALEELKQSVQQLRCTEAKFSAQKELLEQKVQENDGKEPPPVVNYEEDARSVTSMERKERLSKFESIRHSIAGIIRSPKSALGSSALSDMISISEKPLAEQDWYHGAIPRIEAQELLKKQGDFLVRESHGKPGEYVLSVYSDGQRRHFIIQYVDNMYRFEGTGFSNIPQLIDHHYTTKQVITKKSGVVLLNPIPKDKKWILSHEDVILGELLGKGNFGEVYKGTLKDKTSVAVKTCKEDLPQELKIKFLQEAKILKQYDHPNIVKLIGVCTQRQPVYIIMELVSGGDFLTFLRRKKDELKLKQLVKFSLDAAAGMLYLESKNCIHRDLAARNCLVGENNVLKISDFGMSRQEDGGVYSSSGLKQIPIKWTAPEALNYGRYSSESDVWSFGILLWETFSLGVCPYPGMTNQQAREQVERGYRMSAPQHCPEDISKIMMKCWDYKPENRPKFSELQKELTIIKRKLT

## Cc1cccc(-c2nc(Nc3ccc4nn(C)cc4c3)c3ccccc3n2)n1 [NK167]
[1]
  KINOMEscan GRK2: 0
[2]
  KINOMEscan CDK13: 8
[3]
  KINOMEscan PFCDPK1(P.falciparum): 0
[4]
  KINOMEscan DCLK3: 10
[5]
  KINOMEscan MAP4K2: 0
[6]
  KINOMEscan SYK: 0
[7]
  KINOMEscan FER: 0

## Cc1cccc(-c2nc(N(C)c3ccc4ncsc4c3)c3ccccc3n2)n1 [NK-161]
[1]
  KINOMEscan GRK2: 9
[2]
  KINOMEscan CDK13: 6
[3]
  KINOMEscan PFCDPK1(P.falciparum): 0
[4]
  KINOMEscan DCLK3: 14
[5]
  KINOMEscan MAP4K2: 6
[6]
  KINOMEscan SYK: 6
[7]
  KINOMEscan FER: 0
